According to US20260035643A1, “PHYSIOLOGIC AIRWAY MUCOSA AND PARENCHYMA BIOREACTOR AND EX VIVO WHOLE LUNG MODEL OF CYSTIC FIBROSIS FOR DISEASE MODELING AND THERAPEUTIC SCREENING” (The Trustees of Columbia University in the City of New York, priority 2023, published 2026):

What was measured:
human lungs = assay: Xenogeneic cross-circulation support of human lungs with porcine host; settings: added to the immunosuppressive therapy, human lungs on xenogeneic cross-circulation
Text: Preliminary Results: We support human lungs utilizing EVLP and a xenogeneic cross-circulation platform. […] With the addition of cobra venom factor to the immunosuppressive therapy, the risk of acute rejection was mitigated.

[1] = system: tight junctions (TJs) of the airway epithelium; settings: rat trachea lumen, 10 mM EDTA for 30 min, vs native
Text: Quantification of airway epithelium integrity via bioimpedance measurement: To investigate the biophysical integrity of the airway epithelium nondestructively (FIG. 16), we created a platform that allowed quantification of the bioelectrical impedance (bioimpedance) of the airway tissue (FIG. 16A-B). This platform utilizes four electrode probes to measure the electrical properties of the tissue (FIG. 16C). During measurements, alternating electrical current (AC) at various frequencies (20 Hz-135 kHz) and 100 μA of magnitude were injected into the tissue using two current carrying electrodes (CC1 and CC2), while two voltage pick-up electrodes (PU1 and PU2) measured the potential distribution (FIG. 16C). The data were analyzed using the Cole model that describes the biological tissue as a combination of a resistor (R) and a constant phase element (CPE) (FIG. 16D, i).

Molecule | risk of acute rejection (human lungs) | bioimpedance of treated airway tissue [1]
cobra venom factor | mitigated | –
O=C(O)CN(CCN(CC(=O)O)CC(=O)O)CC(=O)O [EDTA, ethylenediaminetetraacetic acid] | – | reduced impedance
